What was measured:
[1] = tested on: Raji; assay: Ratio of IC50 for 20s proteasome subunit beta-1c to IC50 for proteasome subunit beta-1i in human Raji cells; format: cell-based
[2] = Inhibition of 20s proteasome subunit beta-1c in human Raji cells using BODIPY- epoxomicin by fluorescent densitometry; format: cell-based
[3] = target: T1, Proteasome subunit beta type-9 (Homo sapiens, UniProt P28065); assay: Inhibition of proteasome subunit beta-1i in human Raji cells using BODIPY- epoxomicin by fluorescent densitometry; format: cell-based
T1 sequence (P28065 whole entry): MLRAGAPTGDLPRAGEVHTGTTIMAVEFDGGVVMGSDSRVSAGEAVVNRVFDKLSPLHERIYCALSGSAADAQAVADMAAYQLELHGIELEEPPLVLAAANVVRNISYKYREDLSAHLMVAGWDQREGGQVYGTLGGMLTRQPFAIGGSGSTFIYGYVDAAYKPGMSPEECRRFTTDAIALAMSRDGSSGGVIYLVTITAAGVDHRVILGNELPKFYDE

[4] = target: T2, Proteasome subunit beta type-10 (Homo sapiens, UniProt P40306); assay: Inhibition of proteasome subunit beta-2i in human RPMI8226 cells using BODIPY-epoxomicin by fluorescent densitometry; format: cell-based, RPMI-8226
T2 sequence (P40306 whole entry): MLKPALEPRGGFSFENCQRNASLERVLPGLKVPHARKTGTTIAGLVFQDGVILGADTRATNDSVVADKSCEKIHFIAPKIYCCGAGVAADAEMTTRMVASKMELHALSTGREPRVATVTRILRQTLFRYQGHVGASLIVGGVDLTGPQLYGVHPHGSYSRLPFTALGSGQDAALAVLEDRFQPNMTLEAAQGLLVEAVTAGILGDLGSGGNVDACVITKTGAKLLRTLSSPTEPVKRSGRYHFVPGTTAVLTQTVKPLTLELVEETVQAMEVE

[5] = target: T3, Proteasome subunit beta type-8 (Homo sapiens, UniProt P28062); assay: Inhibition of proteasome subunit beta-5i in human RPMI8226 cells using BODIPY-NC005 by fluorescent densitometry; format: cell-based, RPMI-8226
T3 sequence (P28062 whole entry): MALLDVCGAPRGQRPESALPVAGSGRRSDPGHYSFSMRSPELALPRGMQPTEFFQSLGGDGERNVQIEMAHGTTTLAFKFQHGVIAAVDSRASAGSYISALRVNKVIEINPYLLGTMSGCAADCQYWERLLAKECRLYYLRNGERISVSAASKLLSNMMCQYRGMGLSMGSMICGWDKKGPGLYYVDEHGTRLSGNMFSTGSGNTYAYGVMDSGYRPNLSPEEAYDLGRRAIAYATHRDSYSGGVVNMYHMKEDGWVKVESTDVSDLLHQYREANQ

[6] = target: T3, Proteasome subunit beta type-8; assay: Inhibition of proteasome subunit beta-5i in human Raji cells using BODIPY-NC005 by fluorescent densitometry; format: cell-based
[7] = Inhibition of 20s proteasome subunit beta-2c in human RPMI8226 cells using BODIPY-epoxomicin by fluorescent densitometry; format: cell-based; conditions: rpmi-8226
[8] = Inhibition of 20s proteasome subunit beta-1c in human RPMI8226 cells using BODIPY-NC001 by fluorescent densitometry; format: cell-based; conditions: rpmi-8226
[9] = Inhibition of 20s proteasome subunit beta-2c in human Raji cells using BODIPY- epoxomicin by fluorescent densitometry; format: cell-based
[10] = target: T1, Proteasome subunit beta type-9; assay: Inhibition of proteasome subunit beta-1i in human RPMI8226 cells using BODIPY-NC001 by fluorescent densitometry; format: cell-based, RPMI-8226
[11] = Inhibition of 20s proteasome subunit beta-5c in human Raji cells using BODIPY-NC005 by fluorescent densitometry; format: cell-based
[12] = target: T2, Proteasome subunit beta type-10; assay: Inhibition of proteasome subunit beta-2i in human Raji cells using BODIPY- epoxomicin by fluorescent densitometry; format: cell-based
[13] = Inhibition of 20s proteasome subunit beta-5c in human RPMI8226 cells using BODIPY-NC005 by fluorescent densitometry; format: cell-based; conditions: rpmi-8226

| SMILES | Ratio IC50 [1] | IC50 [2] | IC50 [3] | IC50 [6] | IC50 [11] | further results |
| --- | --- | --- | --- | --- | --- | --- |
| CCCC[C@H](NC(=O)[C@@H]1CCN1C(=O)[C@H](C)NC(=O)CN=[N+]=[N-])C(=O)N[C@@H](CC(C)C)C(=O)[C@@]1(C)CO1 | 0.6 | 54 nM | 96 nM |  |  |  |
| CC1=C(C(=O)N[C@H](C)C(=O)N[C@@H](Cc2c[nH]c3ccccc23)C(=O)N[C@H](/C=C/S(C)(=O)=O)Cc2ccccc2)Cc2ccccc21 |  | > 100000 nM | > 100000 nM | 53 nM | 25000 nM | IC50 [4]: > 100000 nM; IC50 [5]: 390 nM; IC50 [7]: > 100000 nM; IC50 [8]: > 100000 nM; IC50 [9]: > 100000 nM; IC50 [10]: > 100000 nM; IC50 [12]: > 100000 nM; IC50 [13]: > 100000 nM |
| COc1ccc(C[C@H](NC(=O)[C@H](C)NC(=O)C2=C(C)c3ccccc3C2)C(=O)N[C@@H](CC2CCCCC2)C(=O)[C@@]2(C)CO2)cc1 |  |  |  | 3 nM | 14.5 nM |  |
| COc1ccc(C[C@H](NC(=O)[C@H](C)NC(=O)CN2CCOCC2)C(=O)N[C@H](/C=C/S(C)(=O)=O)CC2CCCCC2)cc1 |  |  |  | 5700 nM | > 100000 nM |  |
| COc1ccc(C[C@H](NC(=O)[C@H](C)NC(=O)CN2CCOCC2)C(=O)N[C@@H](Cc2ccc(-c3ccccc3)cc2)C(=O)[C@@]2(C)CO2)cc1 |  |  |  | 2 nM | 20 nM |  |
| COc1ccc(C[C@H](NC(=O)[C@H](C)NC(=O)CN2CCOCC2)C(=O)N[C@@H](Cc2ccccc2)C(=O)[C@@]2(C)CO2)cc1 |  | > 10000 nM |  |  | 54 nM | IC50 [7]: 1100 nM; IC50 [8]: > 5000 nM; IC50 [9]: 1100 nM; IC50 [13]: 180 nM |
| COc1ccc(C[C@H](NC(=O)[C@H](C)NC(=O)CN2CCOCC2)C(=O)N[C@@H](CC2CCCCC2)C(=O)[C@@]2(C)CO2)cc1 |  |  | 300 nM | 6.6 nM |  | IC50 [5]: 44 nM; IC50 [10]: 370 nM |
| CCCC[C@H](NC(=O)[C@@H]1C[C@H](F)CN1C(=O)[C@H](C)NC(=O)CN=[N+]=[N-])C(=O)N[C@@H](CC(C)C)C(=O)[C@@]1(C)CO1 | 2.3 | 510 nM | 220 nM |  |  |  |
| COc1ccc(C[C@H](NC(=O)[C@H](C)NC(=O)C2=C(C)c3ccccc3C2)C(=O)N[C@@H](Cc2ccc(-c3ccccc3)cc2)C(=O)[C@@]2(C)CO2)cc1 |  |  |  | 1.4 nM | 12.6 nM |  |
| CC1=C(C(=O)N[C@H](C)C(=O)N[C@@H](Cc2c[nH]c3ccccc23)C(=O)N[C@@H](Cc2ccc(-c3ccccc3)cc2)C(=O)[C@@]2(C)CO2)Cc2ccccc21 |  |  |  | 5 nM | 79 nM |  |
| CCCC[C@H](NC(=O)[C@@H]1CC(F)(F)CN1C(=O)[C@H](C)NC(=O)CN=[N+]=[N-])C(=O)N[C@@H](Cc1ccccc1)C(=O)[C@@]1(C)CO1 | 114 | 4800 nM | 42 nM |  |  | IC50 [12]: > 100000 nM |
| CCCC[C@H](NC(=O)[C@@H]1C[C@@H](O)CN1C(=O)[C@H](C)NC(=O)CN=[N+]=[N-])C(=O)N[C@@H](CC(C)C)C(=O)[C@@]1(C)CO1 | 5 | 860 nM | 170 nM |  |  |  |
| CC1=C(C(=O)N[C@H](C)C(=O)N[C@@H](Cc2c[nH]c3ccccc23)C(=O)N[C@H](/C=C/S(C)(=O)=O)CC2CCCCC2)Cc2ccccc21 |  |  |  | 632 nM | 62000 nM |  |
| CCCC[C@H](NC(=O)[C@@H]1CC(F)(F)CN1C(=O)[C@H](C)NC(=O)CN=[N+]=[N-])C(=O)N[C@@H](CC(C)C)C(=O)[C@@]1(C)CO1 | 10.5 | 360 nM | 34 nM |  |  |  |
| COc1ccc(C[C@H](NC(=O)[C@H](C)NC(=O)CN2CCOCC2)C(=O)N[C@@H](Cc2cccc3ccccc23)C(=O)[C@@]2(C)CO2)cc1 |  |  |  | 244 nM | 1800 nM |  |
| CCCC[C@H](NC(=O)[C@@H]1CCCCN1C(=O)[C@H](C)NC(=O)CN=[N+]=[N-])C(=O)N[C@@H](CC(C)C)C(=O)[C@@]1(C)CO1 | 3.7 | 250 nM | 67 nM |  |  |  |
| COc1ccc(C[C@H](NC(=O)[C@H](C)NC(=O)CN2CCOCC2)C(=O)N[C@@H](Cc2ccc3ccccc3c2)C(=O)[C@@]2(C)CO2)cc1 |  |  |  | 3.1 nM | 97 nM |  |

From ChEMBL document CHEMBL3351747, “Structure-based design of β1i or β5i specific inhibitors of human immunoproteasomes” (J Med Chem, 2014)
